Test results taken from PMC4418665, “Cyclization of the Urokinase Receptor-Derived Ser-Arg-Ser-Arg-Tyr Peptide Generates a Potent Inhibitor of Trans-Endothelial Migration of Monocytes” (PLoS ONE, 2015).
Peptide text beside a SMILES is read from it.

Tested on: GFP-tagged THP-1 cells on endothelial monolayer (HUVECs)
Test: Monocyte diapedesis: GFP-tagged THP-1 cells on HUVEC monolayer
Format: cell-based, human
Details: 10 nM peptide, 30 minutes, 37°C, 10 fields/slide
Excerpt: Diapedesis of leukocytes plays a key role in the pathogenesis of inflammatory diseases and migration of monocytes from the blood into the sub-endothelial space is one of the earliest events. We investigated the effects of [SRSRY] on the number and morphology of THP-1 seeded to an endothelial monolayer. […] (Fig 5A). To examine the changes in morphology in more detail and quantify monocytes interacting with endothelial monolayer, we performed a subset of experiments using GFP-tagged THP-1, labeling co-cultures for F-actin and recording images by a confocal microscope. […] To further ascertain if [SRSRY] reduces trans-endothelial migration of monocytes, the ability of THP-1 cells to cross an endothelial monolayer was analyzed using the xCELLigence RTCA technology as previously described. […] At this time, reduction of impedance values, due to invading cells that interrupt monolayers was monitored in real-time for 10 hours. […]
Fig 5 [SRSRY] prevents trans-endothelial migration of THP-1 cells. […] Representative images of co-cultures analyzed by phase contrast microscopy at 100x with Scale bar: 50 μm (A) or stained with rhodamine- phalloidin and recorded by a confocal microscope (z-series with 0.25 μm intervals) at 630x with Scale bar: 10 μm (B). […] Fluorescent THP-1 cells which were adherent on the endothelial monolayer were counted on 10 fields/slide at 200x magnification. […]

Compound: N=C(N)NCCC[C@@H]1NC(=O)[C@H](CO)NC(=O)[C@H](Cc2ccc(O)cc2)NC(=O)[C@H](CCCNC(=N)N)NC(=O)[C@H](CO)NC1=O [[SRSRY], [Ser-Arg-Ser-Arg-Tyr]] (cyclo(RSRYS))
- reduction of GFP-THP-1 cell number interacting with endothelial monolayer: 40%
